Literature values, collected in patent US20210220374A1, “METHODS OF TREATING TE[…]” (Clarus Therapeutics, Inc., priority 2013, published 2021).

Settings: cited from earlier work

For `C[C@]12CCC(=O)C=C1CC[C@@H]1[C@@H]2CC[C@@]2(C)[C@H]1CC[C@]2(C)O` [methyltestosterone], the Liver toxicity (oral therapy) is listed as “significant occurrence of liver toxicity”.

In the case of `C[C@]12CC[C@H]3[C@@H](CCC4=CC(=O)CC[C@@]43C)[C@@H]1CC[C@@H]2O` [testosterone], the “Serum half-life of testosterone in men” value (in vivo) is given as 10 to 100 min.
